In ChEMBL document CHEMBL1201861, “Genomics of Drug Sensitity in Cancer screening data, Wellcome Trust Sanger Institute”:
“And” between values parts separate entries of the source, which are not always exact repeats. Equal entries are not always repeated. Where a SMILES comes first, the peptide text is derived from it. The star is where a group is joined. Cbz = O=C(OCc1ccccc1)*

Assays:
NCI-H2052 = test: cells; type: functional, cell-based; settings: Homo sapiens;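 further: growth inhibition of NCI-H2052 cells, read out with a cell viability assay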
Description: SANGER: Inhibition of human NCI-H2052 cell growth in a cell viability assay.

D-392MG = test: cells; type: functional, cell-based; settings: Homo sapiens
RL = test: cells; type: functional, cell-based, Homo sapiens
Description: SANGER: Inhibition of human RL cell growth in a cell viability assay.

ASPC1 = test: cells; type: functional, cell-based; settings: Homo sapiens;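 further: growth inhibition of AsPC-1 cells, read out with a cell viability assay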
Description: SANGER: Inhibition of human AsPC-1 cell growth in a cell viability assay.

SIG-M5 = test: cells; type: functional, cell-based, Homo sapiens;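 further: cell viability assay read-out, measuring how strongly growth of cultured human SIG-M5 cells is inhibited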
Description: SANGER: Inhibition of human SIG-M5 cell growth in a cell viability assay.

NCI-H1436 = test: cells; type: functional, cell-based, Homo sapiens;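 further: growth suppression of human NCI-H1436 cells, determined with a cell viability readout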
Description: SANGER: Inhibition of human NCI-H1436 cell growth in a cell viability assay.

NCI-H889 = test: cells; type: functional, cell-based, Homo sapiens;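 further: cell growth inhibition of the cell line, read out with a viability assay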
Description: SANGER: Inhibition of human NCI-H889 cell growth in a cell viability assay.

LCLC-103H cell line = test: cells; type: functional, cell-based; settings: Homo sapiens
Description: SANGER: Inhibition of human LCLC-103H cell growth in a cell viability assay.

ACHN = test: cells; type: functional, cell-based; settings: Homo sapiens;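 further: cell viability read-out used to gauge how strongly growth of human ACHN cells is suppressed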
Description: SANGER: Inhibition of human ACHN cell growth in a cell viability assay.

CAL-85-1 = test: cells; type: functional, cell-based; settings: Homo sapiens;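 further: growth inhibition of human CAL-85-1 cells, read out with a cell viability assay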
Description: SANGER: Inhibition of human CAL-85-1 cell growth in a cell viability assay.

THP-1 = test: cells; type: functional, cell-based, Homo sapiens;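 further: growth inhibition of THP-1 cells, read out via a cell viability assay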
Description: SANGER: Inhibition of human THP-1 cell growth in a cell viability assay.

KYSE-450 = test: cells; type: functional, cell-based; settings: Homo sapiens;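 further: cell growth inhibition measured by a viability assay in human KYSE-450 cells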
Description: SANGER: Inhibition of human KYSE-450 cell growth in a cell viability assay.

M14 = test: cells; type: functional, cell-based; settings: Homo sapiens;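 further: growth inhibition of M14 cells, read out with a cell viability assay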
Description: SANGER: Inhibition of human M14 cell growth in a cell viability assay.

NCI-H650 = test: cells; type: functional, cell-based; settings: Homo sapiens;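 further: growth inhibition of NCI-H650 cells, read out by a viability assay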
Description: SANGER: Inhibition of human NCI-H650 cell growth in a cell viability assay.

BFTC-905 = test: cells; type: functional, cell-based; settings: Homo sapiens
Description: SANGER: Inhibition of human BFTC-905 cell growth in a cell viability assay.

BXPC-3 = test: cells; type: functional, cell-based; settings: Homo sapiens;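 further: growth inhibition of human BxPC-3 cells, read out by a cell viability assay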
Description: SANGER: Inhibition of human BxPC-3 cell growth in a cell viability assay.

NCI-H2452 = test: cells; type: functional, cell-based; settings: Homo sapiens;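 further: growth inhibition of NCI-H2452 cells, read out with a cell viability assay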
Description: SANGER: Inhibition of human NCI-H2452 cell growth in a cell viability assay.

COR-L279 = test: SANGER: Inhibition of human COR-L279 cell growth in a cell viability assay.; type: functional, cell-based
GDM-1 = test: cells; type: functional, cell-based, Homo sapiens; settings: read-out: IC50;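 further: cell viability readout used to measure growth inhibition of human GDM-1 cells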
Description: SANGER: Inhibition of human GDM-1 cell growth in a cell viability assay.

CAPAN-1 = test: cells; type: functional, cell-based; settings: Homo sapiens;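 further: growth suppression of CAPAN-1 cells, read out by a cell viability assay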
Description: SANGER: Inhibition of human CAPAN-1 cell growth in a cell viability assay.

SW756 = test: cells; type: functional, cell-based; settings: Homo sapiens;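 further: growth inhibition of human SW756 cells, read out with a cell viability assay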
Description: SANGER: Inhibition of human SW756 cell growth in a cell viability assay.

GP5d = test: cells; type: functional, cell-based; settings: Homo sapiens;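 further: growth inhibition of human GP5d cells, read out with a cell viability assay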
Description: SANGER: Inhibition of human GP5d cell growth in a cell viability assay.

LB647-SCLC = test: cells; type: functional, cell-based, Homo sapiens;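 further: cell growth inhibition, read out by a viability assay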
Description: SANGER: Inhibition of human LB647-SCLC cell growth in a cell viability assay.

HCC1806 = test: cells; type: functional, cell-based; settings: Homo sapiens;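 further: growth inhibition of the cancer cell line, determined with a cell viability assay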
Description: SANGER: Inhibition of human HCC1806 cell growth in a cell viability assay.

A673 = test: cells; type: functional, cell-based; settings: Homo sapiens;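 further: growth inhibition of human A673 cells, read out through a cell viability assay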
Description: SANGER: Inhibition of human A673 cell growth in a cell viability assay.

SW1573 = test: cells; type: functional, cell-based; settings: Homo sapiens;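 further: growth inhibition of SW1573 cells, read out with a cell viability assay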
Description: SANGER: Inhibition of human SW1573 cell growth in a cell viability assay.

CAL-51 = test: cells; type: functional, cell-based; settings: Homo sapiens;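 further: human CAL-51 cell line, growth inhibition read out via a cell viability assay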
Description: SANGER: Inhibition of human CAL-51 cell growth in a cell viability assay.

Daoy = test: cells; type: functional, cell-based; settings: Homo sapiens;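 further: daoy cell growth inhibition, read out as cell viability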
Description: SANGER: Inhibition of human Daoy cell growth in a cell viability assay.

RMG-I = test: cells; type: functional, cell-based; settings: Homo sapiens;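 further: growth inhibition of human RMG-I cells, read out with a cell viability assay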
Description: SANGER: Inhibition of human RMG-I cell growth in a cell viability assay.

SW1783 = test: cells; type: functional, cell-based; settings: Homo sapiens
Description: SANGER: Inhibition of human SW1783 cell growth in a cell viability assay.

SUP-T1 = test: cells; type: functional, cell-based, Homo sapiens;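 further: growth inhibition of human SUP-T1 cells, read out as cell viability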
Description: SANGER: Inhibition of human SUP-T1 cell growth in a cell viability assay.

MFE-280 = test: cells; type: functional, cell-based; settings: Homo sapiens;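 further: growth inhibition of MFE-280 cells, determined with a cell viability readout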
Description: SANGER: Inhibition of human MFE-280 cell growth in a cell viability assay.

UACC-812 = test: cells; type: functional, cell-based; settings: Homo sapiens
Description: SANGER: Inhibition of human UACC-812 cell growth in a cell viability assay.

COR-L105 = test: cells; type: functional, cell-based; settings: Homo sapiens
Description: SANGER: Inhibition of human COR-L105 cell growth in a cell viability assay.

HT1197 = test: cells; type: functional, cell-based, HT-1197; settings: Homo sapiens
Description: SANGER: Inhibition of human HT-1197 cell growth in a cell viability assay.

GMS-10 = test: cells; type: functional, cell-based; settings: Homo sapiens;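 further: growth inhibition of GMS-10 cells, read out as cell viability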
Description: SANGER: Inhibition of human GMS-10 cell growth in a cell viability assay.

G-402 = test: cells; type: functional, cell-based; settings: Homo sapiens
Description: SANGER: Inhibition of human G-402 cell growth in a cell viability assay.

CAL-62 = test: cells; type: functional, cell-based; settings: Homo sapiens;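 further: growth inhibition of CAL-62 cells, read out with a cell viability assay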
Description: SANGER: Inhibition of human CAL-62 cell growth in a cell viability assay.

NCI-H2122 = test: cells; type: functional, cell-based; settings: Homo sapiens;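 further: growth inhibition of the cells, read out with a cell viability assay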
Description: SANGER: Inhibition of human NCI-H2122 cell growth in a cell viability assay.

NCI-H1437 = test: cells; type: functional, cell-based; settings: Homo sapiens;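 further: growth inhibition of human NCI-H1437 cells, read out by a cell viability assay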
Description: SANGER: Inhibition of human NCI-H1437 cell growth in a cell viability assay.

SU-DHL-1 = test: SANGER: Inhibition of human SU-DHL-1 cell growth in a cell viability assay.; type: functional, cell-based
HLE = test: cells; type: functional, cell-based; settings: Homo sapiens;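 further: growth inhibition of human HLE cells, read out by a cell viability assay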
Description: SANGER: Inhibition of human HLE cell growth in a cell viability assay.

CPC-N = test: cells; type: functional, cell-based, Homo sapiens;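 further: growth inhibition of CPC-N cells, with a cell viability assay as the readout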
Description: SANGER: Inhibition of human CPC-N cell growth in a cell viability assay.

D-542MG = test: cells; type: functional, cell-based; settings: Homo sapiens
Description: SANGER: Inhibition of human D-542MG cell growth in a cell viability assay.

NCI-H345 = test: cells; type: functional, cell-based, Homo sapiens;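 further: growth inhibition of NCI-H345 cells measured with a cell viability assay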
Description: SANGER: Inhibition of human NCI-H345 cell growth in a cell viability assay.

ECC4 = test: cells; type: functional, cell-based, Homo sapiens;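 further: growth inhibition of ECC4 cells, read out with a cell viability assay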
Description: SANGER: Inhibition of human ECC4 cell growth in a cell viability assay.

5637 = test: cells; type: functional, cell-based; settings: Homo sapiens
Description: SANGER: Inhibition of human 5637 cell growth in a cell viability assay.

NCI-H2170 = test: cells; type: functional, cell-based; settings: Homo sapiens;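 further: cell viability assay measuring growth inhibition of human NCI-H2170 cancer cells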
Description: SANGER: Inhibition of human NCI-H2170 cell growth in a cell viability assay.

MHH-ES-1 = test: cells; type: functional, cell-based; settings: Homo sapiens
Description: SANGER: Inhibition of human MHH-ES-1 cell growth in a cell viability assay.

SCC-3 = test: cells; type: functional, cell-based, Homo sapiens;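 further: cell viability assay measuring inhibition of SCC-3 cell growth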
Description: SANGER: Inhibition of human SCC-3 cell growth in a cell viability assay.

ChaGo-K-1 = test: cells; type: functional, cell-based; settings: Homo sapiens;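 further: growth inhibition of ChaGo-K-1 cells, read out with a cell viability assay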
Description: SANGER: Inhibition of human ChaGo-K-1 cell growth in a cell viability assay.

ESS-1 = test: cells; type: functional, cell-based; settings: Homo sapiens;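 further: growth inhibition of human ESS-1 cells, read out by a cell viability assay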
Description: SANGER: Inhibition of human ESS-1 cell growth in a cell viability assay.

NCI-H1755 = test: cells; type: functional, cell-based; settings: Homo sapiens;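 further: cell viability readout used to measure growth inhibition of NCI-H1755 cells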
Description: SANGER: Inhibition of human NCI-H1755 cell growth in a cell viability assay.

U2OS = test: cells; type: functional, cell-based, U-2-OS; settings: Homo sapiens;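 further: growth inhibition of human U-2-OS cells, determined with a cell viability assay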
Description: SANGER: Inhibition of human U-2-OS cell growth in a cell viability assay.

EVSA-T = test: cells; type: functional, cell-based, Homo sapiens;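 further: growth inhibition of EVSA-T cells, read out with a cell viability assay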
Description: SANGER: Inhibition of human EVSA-T cell growth in a cell viability assay.

YAPC = test: cells; type: functional, cell-based; settings: Homo sapiens;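 further: growth inhibition of YAPC cells, measured with a cell viability assay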
Description: SANGER: Inhibition of human YAPC cell growth in a cell viability assay.

T47D = test: cells; type: functional, cell-based; settings: Homo sapiens;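 further: growth inhibition of human T47D cells, measured with a cell viability assay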
Description: SANGER: Inhibition of human T47D cell growth in a cell viability assay.

IST-SL2 = test: cells; type: functional, cell-based, Homo sapiens;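 further: growth inhibition of human IST-SL2 cells, read out by a cell viability assay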
Description: SANGER: Inhibition of human IST-SL2 cell growth in a cell viability assay.

NB7 = test: cells; type: functional, cell-based, Homo sapiens; settings: nb7;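 further: growth inhibition of NB7 cells, read out with a cell viability assay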
Description: SANGER: Inhibition of human NB7 cell growth in a cell viability assay.

Compound `OC[C@H](Cc1ccccc1)Nc1nc(Oc2ccc3c(c2)CCC3)nc2c1ncn2Cc1ccc(-c2ccccc2)cc1` has an IC50 (NCI-H2052) greater than 10.2 µM, an IC50 (D-392MG) greater than 10.2 µM and an IC50 (RL; Homo sapiens, RL) greater than 10.2 µM. For the same compound, the IC50 (ASPC1) was greater than 10.2 µM, the IC50 (SIG-M5; Homo sapiens, SIG-M5) was 0.654 µM and the IC50 (NCI-H1436; Homo sapiens, NCI-H1436) was greater than 10.2 µM. The IC50 (NCI-H889; Homo sapiens, NCI-H889) was greater than 10.2 µM, the IC50 (LCLC-103H cell line) was greater than 10.2 µM and the IC50 (ACHN) was greater than 10.2 µM. It also gave an IC50 (CAL-85-1) of 4.45 µM, an IC50 (THP-1; Homo sapiens, THP-1) greater than 10.2 µM and an IC50 (KYSE-450) of 8.47 µM. For the same compound, the IC50 (M14) was greater than 10.2 µM, the IC50 (NCI-H650) was 7.39 µM and the IC50 (BFTC-905) was 5.02 µM. For the same compound, the IC50 (BXPC-3) was greater than 10.2 µM, the IC50 (NCI-H2452) was greater than 10.2 µM and the IC50 (COR-L279; Homo sapiens, COR-L279) was greater than 10.2 µM. For the same compound, the IC50 (GDM-1; Homo sapiens, GDM-1) was 3.33 µM, the IC50 (CAPAN-1) was greater than 10.2 µM and the IC50 (SW756) was greater than 10.2 µM. The IC50 (GP5d) was greater than 10.2 µM, the IC50 (LB647-SCLC; Homo sapiens, LB647-SCLC) was 5.49 µM and the IC50 (HCC1806) was greater than 10.2 µM. It also gave an IC50 (A673) greater than 10.2 µM, an IC50 (SW1573) greater than 10.2 µM and an IC50 (CAL-51) of 2.23 µM. For the same compound, the IC50 (Daoy) was 2.93 µM, the IC50 (RMG-I) was greater than 10.2 µM and the IC50 (SW1783) was greater than 10.2 µM. It also gave an IC50 (SUP-T1; Homo sapiens, SUP-T1) of 4.97 µM, an IC50 (MFE-280) greater than 10.2 µM and an IC50 (UACC-812) greater than 10.2 µM. The IC50 (COR-L105) was greater than 10.2 µM, the IC50 (HT1197) was greater than 10.2 µM and the IC50 (GMS-10) was greater than 10.2 µM. For the same compound, the IC50 (G-402) was greater than 10.2 µM, the IC50 (CAL-62) was 9.44 µM and the IC50 (NCI-H2122) was 2.72 µM. It also gave an IC50 (NCI-H1437) of 6.89 µM, an IC50 (SU-DHL-1; Homo sapiens, SU-DHL-1) greater than 10.2 µM and an IC50 (HLE) of 5.66 µM. For the same compound, the IC50 (CPC-N; Homo sapiens, CPC-N) was greater than 10.2 µM, the IC50 (D-542MG) was greater than 10.2 µM and the IC50 (NCI-H345; Homo sapiens, NCI-H345) was greater than 10.2 µM. It also gave an IC50 (ECC4; Homo sapiens, ECC4) greater than 10.2 µM, an IC50 5637 of 4.18 µM and an IC50 (NCI-H2170) greater than 10.2 µM. The IC50 (MHH-ES-1) was greater than 10.2 µM, the IC50 (SCC-3; Homo sapiens, SCC-3) was greater than 10.2 µM and the IC50 (ChaGo-K-1) was greater than 10.2 µM. It also gave an IC50 (ESS-1) greater than 10.2 µM, an IC50 (NCI-H1755) greater than 10.2 µM and an IC50 (U2OS) greater than 10.2 µM. The IC50 (EVSA-T; Homo sapiens, EVSA-T) was greater than 10.2 µM, the IC50 (YAPC) was greater than 10.2 µM and the IC50 (T47D) was greater than 10.2 µM. The IC50 (IST-SL2; Homo sapiens, IST-SL2) was greater than 10.2 µM.

With `O=S(=O)(O)c1ccc2cc(/N=N/c3cc(S(=O)(=O)O)c4cccnc4c3O)ccc2c1` the IC50 (NCI-H2052) was greater than 16 µM, the IC50 (D-392MG) was greater than 16 µM and the IC50 (RL; Homo sapiens, RL) was greater than 16 µM. For the same compound, the IC50 (ASPC1) was greater than 16 µM, the IC50 (SIG-M5; Homo sapiens, SIG-M5) was greater than 16 µM and the IC50 (NCI-H1436; Homo sapiens, NCI-H1436) was greater than 16 µM. It also gave an IC50 (NCI-H889; Homo sapiens, NCI-H889) greater than 16 µM, an IC50 (LCLC-103H cell line) greater than 16 µM and an IC50 (ACHN) greater than 16 µM. For the same compound, the IC50 (CAL-85-1) was greater than 16 µM, the IC50 (THP-1; Homo sapiens, THP-1) was greater than 16 µM and the IC50 (KYSE-450) was greater than 16 µM. The IC50 (M14) was greater than 16 µM, the IC50 (NCI-H650) was greater than 16 µM and the IC50 (BFTC-905) was greater than 16 µM. It also gave an IC50 (BXPC-3) greater than 16 µM, an IC50 (NCI-H2452) greater than 16 µM and an IC50 (COR-L279; Homo sapiens, COR-L279) greater than 16 µM. For the same compound, the IC50 (GDM-1; Homo sapiens, GDM-1) was greater than 16 µM, the IC50 (CAPAN-1) was greater than 16 µM and the IC50 (SW756) was greater than 16 µM. For the same compound, the IC50 (GP5d) was greater than 16 µM, the IC50 (LB647-SCLC; Homo sapiens, LB647-SCLC) was greater than 16 µM and the IC50 (HCC1806) was greater than 16 µM. For the same compound, the IC50 (A673) was greater than 16 µM, the IC50 (SW1573) was greater than 16 µM and the IC50 (CAL-51) was 9.36 µM. For the same compound, the IC50 (Daoy) was greater than 16 µM, the IC50 (RMG-I) was greater than 16 µM and the IC50 (SW1783) was greater than 16 µM. For the same compound, the IC50 (SUP-T1; Homo sapiens, SUP-T1) was greater than 16 µM, the IC50 (MFE-280) was greater than 16 µM and the IC50 (UACC-812) was greater than 16 µM. The IC50 (COR-L105) was greater than 16 µM, the IC50 (HT1197) was greater than 16 µM and the IC50 (GMS-10) was greater than 16 µM. It also gave an IC50 (G-402) greater than 16 µM, an IC50 (CAL-62) greater than 16 µM and an IC50 (NCI-H2122) greater than 16 µM. It also gave an IC50 (NCI-H1437) greater than 16 µM, an IC50 (SU-DHL-1; Homo sapiens, SU-DHL-1) greater than 16 µM and an IC50 (HLE) greater than 16 µM. It also gave an IC50 (CPC-N; Homo sapiens, CPC-N) greater than 16 µM, an IC50 (D-542MG) greater than 16 µM and an IC50 (NCI-H345; Homo sapiens, NCI-H345) greater than 16 µM. It also gave an IC50 (ECC4; Homo sapiens, ECC4) greater than 16 µM, an IC50 5637 greater than 16 µM and an IC50 (NCI-H2170) greater than 16 µM. The IC50 (MHH-ES-1) was greater than 16 µM, the IC50 (SCC-3; Homo sapiens, SCC-3) was greater than 16 µM and the IC50 (ChaGo-K-1) was greater than 16 µM. The IC50 (ESS-1) was greater than 16 µM, the IC50 (NCI-H1755) was greater than 16 µM and the IC50 (U2OS) was greater than 16 µM. For the same compound, the IC50 (EVSA-T; Homo sapiens, EVSA-T) was greater than 16 µM, the IC50 (YAPC) was greater than 16 µM and the IC50 (T47D) was greater than 16 µM. The IC50 (IST-SL2; Homo sapiens, IST-SL2) was greater than 16 µM.

For `CC(C)C[C@@H](C=O)NC(=O)[C@H](CC(C)C)NC(=O)[C@H](CC(C)C)NC(=O)OCc1ccccc1` [MG-132] (Cbz-Leu-Leu-Leu-aldehyde), the IC50 (D-392MG) was 0.191 µM, the IC50 (RL; rl) was greater than 1 µM and the IC50 (SIG-M5; sig-m5) was greater than 1 µM. It also gave an IC50 (NCI-H1436; Homo sapiens, NCI-H1436) greater than 1 µM, an IC50 (NCI-H1436; nci-h1436) greater than 1 µM and an IC50 (NCI-H889; nci-h889) greater than 1 µM. The IC50 (THP-1; thp-1) was greater than 1 µM, the IC50 (COR-L279; cor-l279) was greater than 1 µM and the IC50 (GDM-1; gdm-1) was 0.351 µM and > 1 µM. For the same compound, the IC50 (LB647-SCLC; Homo sapiens, LB647-SCLC) was greater than 1 µM, the IC50 (LB647-SCLC; lb647-sclc) was greater than 1 µM and the IC50 (SUP-T1; Homo sapiens, SUP-T1) was greater than 1 µM. For the same compound, the IC50 (SUP-T1; sup-t1) was greater than 1 µM, the IC50 (UACC-812) was greater than 1 µM and the IC50 (SU-DHL-1; su-dhl-1) was greater than 1 µM. The IC50 (CPC-N; cpc-n) was greater than 1 µM, the IC50 (D-542MG) was 0.0596 µM and the IC50 (NCI-H345; nci-h345) was greater than 1 µM. The IC50 (ECC4; ecc4) was greater than 1 µM, the IC50 (SCC-3; Homo sapiens, SCC-3) was greater than 1 µM and the IC50 (SCC-3; scc-3) was greater than 1 µM. For the same compound, the IC50 (EVSA-T; evsa-t) was 0.499 µM and > 1 µM, the IC50 (NB7) was greater than 1 µM and the IC50 (IST-SL2; ist-sl2) was greater than 1 µM.
